For one data set, the target named is T1, CCK-A receptors (Cavia porcellus, UniProt Q63931).
T1 construct: guinea pig isolated ileum longitudinal muscle myenteric plexus preparation; from tissue; host or cells: guinea pig isolated ileum longitudinal muscle-myenteric plexus
T1 sequence (Q63931 1-430): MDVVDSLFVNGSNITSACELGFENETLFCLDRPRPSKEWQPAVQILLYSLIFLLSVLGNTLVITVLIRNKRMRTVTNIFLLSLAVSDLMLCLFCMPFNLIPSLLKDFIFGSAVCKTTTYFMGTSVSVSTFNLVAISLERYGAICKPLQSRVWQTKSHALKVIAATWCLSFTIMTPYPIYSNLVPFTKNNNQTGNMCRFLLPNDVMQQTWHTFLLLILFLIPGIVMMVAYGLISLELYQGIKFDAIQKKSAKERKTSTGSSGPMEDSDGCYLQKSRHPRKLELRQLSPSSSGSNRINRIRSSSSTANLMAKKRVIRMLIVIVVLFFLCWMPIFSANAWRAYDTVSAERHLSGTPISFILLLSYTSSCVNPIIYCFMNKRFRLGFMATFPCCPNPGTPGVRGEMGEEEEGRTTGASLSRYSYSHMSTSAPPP
In words: CCK-A antagonist activity, guinea pig isolated ileum longitudinal muscle myenteric plexus preparation. Format: cell-based. As to the method:
The preparation and use of guinea-pig isolated ileum longitudinal muscle-myenteric plexus has been described by K-H Buchheit et al in Nauyn-Schmeideberg's Arch. Pharmacol, (1985), 329, p3641 and by V.L. Lucaites et al (1991) in J. Pharmacol. Exp. Ther., 256, 695-703.
The CCK-A antagonist and CCK-B antagonist activites of compounds of the invention were determined using the guinea pig isolated ileum longitudinal muscle myenteric plexus preparation. The compounds were tested using the procedure G Dal Forno et al J. Pharmacol. Exp & Ther. 261 - 1056-1063 1992 and the pKb value for each compound was determined.

Another data set concerns the target CCK-B receptor (Cavia porcellus, UniProt H0VZC5). In words: CCK receptor binding, guinea pig cortex assay. Set-up: CCK-B receptor (guinea pig cortex assay); from tissue; host or cells: guinea pig cortex. As to the method:
The greater affinity of the compounds of the invention for the CCK-B receptor over the CCK-A receptor has also been established using the CCK receptor binding assays described by G Dal Fornos et al., J. Pharmcol. Exp & Ther. 261, 1056-1063, 1992.
The binding affinity of the compounds of the invention for the CCK-A receptor (Pancreas Assay) and CCK-B receptor (guinea pig cortex assay) was determined using the procedure of G Dal Forno et al J. Pharmacol. Exp & Ther. 261 - 1056-1063. The pKi values determined with respresentative compounds of invention were as follows: […]

Data set [1] has as its system mice. In words: Tolerability after oral administration to mice. The data set is classed as in vivo. Particulars: given orally to mice at doses at which the compound exhibits anxiolytic activity. The text has this:
(§1) The compounds of the invention are essentially non-toxic and therapeutically useful doses.

The next data set concerns rats. Kind of data set: Tolerability after oral administration to rats. Format: in vivo. The settings on record: given orally to rats at doses at which the compound exhibits anxiolytic activity.
Excerpt: as §1

Data set [2] concerns mice. Kind of data set: Anxiolytic activity in mice (black-white box test). Format: in vivo. An excerpt: (§2) For example in mice in the black-white box test and in the rat social interaction model.
The next data set relates to rat. In words: Anxiolytic activity in rats (rat social interaction model). The data set is classed as in vivo.
Excerpt: as §2

The mark [3] stands for this setting: guinea pig isolated ileum longitudinal muscle myenteric plexus, inhibition of contractile activity of CCK-8, read-out: pKb CCK-A (converted).

Molecules are shown by their SMILES. Like-named read-outs stand apart in the source and are kept apart here. Some results are limits rather than exact numbers.

Chain of CCK-B receptor (H0VZC5 entry or part of it): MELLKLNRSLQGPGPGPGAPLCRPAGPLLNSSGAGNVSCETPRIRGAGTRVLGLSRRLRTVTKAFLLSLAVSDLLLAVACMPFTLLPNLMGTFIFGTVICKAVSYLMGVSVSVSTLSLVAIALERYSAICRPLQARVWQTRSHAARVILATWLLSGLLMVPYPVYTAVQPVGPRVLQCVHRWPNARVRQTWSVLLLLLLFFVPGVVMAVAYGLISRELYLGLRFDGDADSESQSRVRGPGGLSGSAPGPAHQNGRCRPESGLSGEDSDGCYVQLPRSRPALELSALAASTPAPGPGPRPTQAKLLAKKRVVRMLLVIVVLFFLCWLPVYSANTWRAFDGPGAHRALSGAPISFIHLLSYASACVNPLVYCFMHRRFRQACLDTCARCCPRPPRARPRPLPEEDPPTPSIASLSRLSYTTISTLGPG

Compound `O=C(Nc1ccccc1)NC1C(=O)N(CC23CC4CC(CC(C4)C2)C3)c2ccccc2N(c2ccccc2)C1=O` (centres unmarked) [Example 14, N-[1-(1-Adamantyl)methyl-2,4-dioxo-5-phenyl-2,3,4,5-tetrahydro-1H-1,5-benzodiazepin-3-yl]-N'-phenylurea] gave a Kb on CCK-A receptors of 158 nM.
As for `CN(C)c1ccc(NC(=O)NC2C(=O)N(CCC3CCCC3)c3ccccc3N(c3ccccc3F)C2=O)cc1` (centres unmarked) [Example 30, N-[1-(2-cyclopentyl-ethyl)-2,4-dioxo-5-(2-fluorophenyl)-2,3,4,5-tetrahydro-1H-1,5-benzodiazepin-3-yl]-N'-[4-(dimethylamino)phenyl]urea], at CCK-B receptor, the affinity corresponds to a Ki of 0.724 nM.
The same measure, in the same setting: to `O=C(Nc1cccc([N+](=O)[O-])c1)NC1C(=O)N(CC23CC4CC(CC(C4)C2)C3)c2ccccc2N(c2ccccc2)C1=O` (centres unmarked) [Example 39, N-[1-(1-Adamantylmethyl)-2,4-dioxo-5-phenyl-2,3,4,5-tetrahydro-1H-1,5-benzodiazepin-3-yl]-N'-(3-nitrophenyl)urea] belongs 1.91 nM.
On the same count and under the same terms, then `CC(C)CCN1C(=O)C(NC(=O)Nc2ccccc2)C(=O)N(c2ccccc2)c2cc(Cl)c(Cl)cc21` (centres unmarked) [Example 11, N-[7,8-dichloro-2,4-Dioxo-1-(3-methylbut-1-yl)-5-phenyl-2,3,4,5-tetrahydro-1H-1,5-benzodiazepin-3-yl]-N'-phenylurea], with 9.77 nM; and `O=C(Nc1ccccc1)NC1C(=O)N(CC2CC3C=CC2C3)c2ccccc2N(c2ccccc2)C1=O` (centres unmarked) [Example 31, N-[1-(Bicyclo [2.2.1]-5-heptene-2-ylmethyl)-2,4-dioxo-5-phenyl-2,3,4,5-tetrahydro-1H-1,5-benzodiazepin-3yl]-N'-phenylurea], with 1.51 nM.
`O=C(Nc1ccccc1)NC1C(=O)N(CC23CC4CC(CC(C4)C2)C3)c2ccccc2N(c2ccccc2)C1=O` (single isomer, unassigned; (+)) [Example 45, (+)-N-[1-(Adamantanmethyl)-2,4-dioxo-5-phenyl-2,3,4,5-tetrahydro-1H-1,5benzodiazepin-3-yl]-N'-phenylurea] had a Kb at CCK-A receptors of 1260 nM. The untoward effects result in the data set on mice [1] and in the data set with rats was “no untoward effects” throughout. The anxiolytic activity result with mice [2] and in the data set with rat was “exhibits anxiolytic activity” each time.
For `CC(C)(C)CCN1C(=O)C(NC(=O)Nc2ccccc2)C(=O)N(c2ccccc2)c2ccccc21` (centres unmarked) [Example 16, N-[1-(3,3-Dimethylbutyl)-2,4-dioxo-5-phenyl-2,3,4,5-tetrahydro-1H-1,5-benzodiazepin-3-yl]-N'-phenylurea], at CCK-B receptor, the Ki – broadly, the equilibrium dissociation constant of an inhibitor or competing ligand from its target – was 0.676 nM.
On to `CC(C)CCN1C(=O)C(NC(=O)Nc2cccc(N(C)C)c2)C(=O)N(c2ccccc2F)c2ccccc21` (centres unmarked) [Example 4, N-[2,4-dioxo-5-(2-fluorophenyl)-1-(3-methylbut-1-yl)-2,3,4,5-tetrahydro-1H-1,5-benzodiazepin-3-yl]-N'-(3-dimethylamino)phenylurea], for which the Kb at CCK-A receptors (setting [3]) is 3160 nM. In addition, at CCK-B receptor, the Ki is 0.251 nM.
Consider `CC(C)CCN1C(=O)C(NC(=O)Nc2ccccc2)C(=O)N(c2ccccc2)c2ccccc21` (centres unmarked) [Example 25, N-[2,4-Dioxo-5-phenyl-1-(3-methylbut-1-yl)-2,3,4,5-tetrahydro-1H-1,5-benzodiazepin-3-yl]-N'-phenylurea], for which, on CCK-A receptors (setting [3]), the Kb was > 1000 nM.
`CC(C)(C)C(O)CN1C(=O)C(NC(=O)Nc2ccccc2)C(=O)N(c2ccccc2F)c2ccccc21` (centres unmarked) [Example 7A, N-[1-(3,3-Dimethyl-2-hydroxybut-1-yl)-2,4-dioxo-5-(2-fluorophenyl)-2,3,4,5-tetrahydro-1H-1,5-benzodiazepin-3-yl]-N'-phenylurea] had a Ki on CCK-B receptor of 1.95 nM.
`CCOC(=O)c1cccc(NC(=O)NC2C(=O)N(CC34CC5CC(CC(C5)C3)C4)c3ccccc3N(c3ccccc3)C2=O)c1` (centres unmarked) [Example 41, N-[1-(1-Adamantylmethyl)-2,4-dioxo-5-phenyl-2,3,4,5-tetrahydro-1H-1,5-benzodiazepin-3-yl]-N'-(3-ethoxycarbonylphenyl)urea] showed a Ki at CCK-B receptor of 2.95 nM.
Same read-out and setting: then `CC(C)CCN1C(=O)C(NC(=O)Nc2ccccc2)C(=O)N(c2ccccc2)c2cc(Cl)ccc21` (centres unmarked) [Example 9, N-[7-Chloro-2,4-dioxo-1-(3-methylbut-1-yl)-5-phenyl-2,3,4,5-tetrahydro-1H-1,5-benzodiazepin-3-yl]-N'-phenylurea], with 4.9 nM.
